This is an account of results in publication PMC8868331, “Hydroxamic Acid as a Potent Metal-Binding Group for Inhibiting Tyrosinase” (Antioxidants, 2022).

Molecules are shown by their SMILES. Where two headings read alike, the source gives them in different places.

What is called Ki is a measure of affinity in units of concentration, obtained from inhibition or displacement. By Tm is commonly meant the temperature at the midpoint of the melting transition. A word on the IC50: it is the concentration that inhibits the measured activity by half.

For experiment [1], the target named is mushroom tyrosinase from Agaricus bisporus (Agaricus bisporus, UniProt C7FF04). The experiment in a line: Enzyme-activity assay with mushroom tyrosinase, L-DOPA substrate, dopachrome absorbance at 475 nm. The experiment is classed as biochemical.
Sequence of mushroom tyrosinase from Agaricus bisporus (C7FF04 1-392): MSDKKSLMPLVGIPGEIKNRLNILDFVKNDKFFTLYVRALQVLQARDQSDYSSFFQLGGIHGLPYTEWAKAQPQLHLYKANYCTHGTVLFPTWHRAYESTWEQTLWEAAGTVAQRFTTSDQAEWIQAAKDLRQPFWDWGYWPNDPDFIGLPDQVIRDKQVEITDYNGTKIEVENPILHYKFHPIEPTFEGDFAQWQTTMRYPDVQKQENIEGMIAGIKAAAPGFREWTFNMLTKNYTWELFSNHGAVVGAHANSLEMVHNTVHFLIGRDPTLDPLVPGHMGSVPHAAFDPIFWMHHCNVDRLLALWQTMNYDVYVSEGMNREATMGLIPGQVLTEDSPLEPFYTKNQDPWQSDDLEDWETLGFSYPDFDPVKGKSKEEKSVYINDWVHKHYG
Experiment [2] addresses tyrosinase (Agaricus bisporus, UniProt C7FF04). In words: Enzyme-inhibitory kinetics (Michaelis-Menten fitting with inhibition models). The experiment is classed as biochemical, mushroom. To be noted: for Kinetics model (mode of inhibition): model chosen by F-test on reduced χ2. The protocol: Enzyme-inhibitory kinetics—Upon varying the substrate and inhibitor concentrations, the rates of product generation were measured. Simultaneous nonlinear fitting of all the profiles in an inhibitor was performed by minimizing the ꭓ^2-value, the sum of the squared differences in theoretical and experimental values, in the Michaelis–Menten equations assuming competitive, uncompetitive, noncompetitive, and mixed models. […] Reduced ꭓ^2-values, ꭓ^2-values divided by the difference in the numbers of input data and fitting parameters, were compared between the models based on the F-test to identify the most appropriate model.
The inhibitory kinetic experiments provide information for understanding the inhibition by small molecules. The rates of product generation were measured for a series of paired substrate and inhibitor concentrations. Subsequent nonlinear fitting using the Michaelis−Menten equations extended with inhibitory models and constants produced the inhibition mode and the binding constant.
Figure 4F lists the parameters for inhibition. […] However, one should be careful not to overinterpret the simulated modes and Ki values. The modes were chosen using the F-test, comparing reduced χ^2-values from each model.

The target in experiment [3] is mushroom tyrosinase (Agaricus bisporus, UniProt C7FF04). In words: Differential scanning fluorimetry (DSF) with SYPRO Orange. The experiment is classed as binding. As to conditions: 500 μM inhibitor; for Tm: mean ± SD of three experiments, DMSO control 49.16. The protocol: Differential scanning fluorimetry—Differential scanning fluorimetry (DSF) was used to characterize the direct binding of inhibitors to tyrosinase. In the absence and presence of 500 μM inhibitor, SYPRO® Orange was added to the enzyme solution. […] Time- and temperature-dependent signals were observed using the RT-PCR CFX96 system from BioRad (Hercules, CA, USA). The following equation was nonlinearly minimized to determine the mid-point melting temperature (Tm). I(T)=LL+UL−LL/[1+exp(Tm−T/a)] where UL and LL indicate the top and baseline of the curves, respectively, and a indicates the steepness of the slope.
Sequence of mushroom tyrosinase (C7FF04 1-392 limits assumed): as the sequence (C7FF04 1-392) above
We used differential scanning fluorimetry (DSF) to verify whether active small molecules identified by biochemical assays bound to tyrosinase directly. DSF was used to evaluate the fluorescence profiles of the dye SYPRO® Orange in a mixture with the protein upon elevating the temperature. The alteration in the unfolding process in the presence of a direct binder can shift the DSF pattern.
In general terms: Differential scanning fluorimetry follows unfolding on heating by fluorescence.

Experiment [4] concerns the target T1, mammalian tyrosinase in B16F10 cell lysates (Mus musculus, UniProt P11344).
T1 construct: The cell extracts having tyrosinase activity were prepared; host or cells: B16F10 murine melanoma cells, stimulated with 3-isobutyl-1-methylxanthine, lysate
T1 sequence (P11344 19-533): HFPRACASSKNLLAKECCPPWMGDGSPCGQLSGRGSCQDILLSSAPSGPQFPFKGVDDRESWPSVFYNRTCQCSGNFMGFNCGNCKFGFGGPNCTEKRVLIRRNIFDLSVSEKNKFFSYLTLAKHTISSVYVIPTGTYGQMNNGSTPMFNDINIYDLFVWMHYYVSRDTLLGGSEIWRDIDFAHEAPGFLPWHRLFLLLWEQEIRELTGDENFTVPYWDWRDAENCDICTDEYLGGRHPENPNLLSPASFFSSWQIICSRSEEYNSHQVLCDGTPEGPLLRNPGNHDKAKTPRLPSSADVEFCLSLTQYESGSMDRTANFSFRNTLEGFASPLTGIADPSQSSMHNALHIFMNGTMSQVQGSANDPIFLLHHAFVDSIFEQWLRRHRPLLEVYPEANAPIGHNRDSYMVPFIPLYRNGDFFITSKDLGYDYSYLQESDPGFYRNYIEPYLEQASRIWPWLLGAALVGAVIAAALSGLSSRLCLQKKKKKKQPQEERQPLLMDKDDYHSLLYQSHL
The experiment in a line: Cell-lysate-based tyrosinase activity assay. The format is biochemical, murine. To be noted: 50 μM, relative to untreated control. The procedure:
Cell-lysate-based activity assays with inhibitors—Cell-lysate-based assays were performed using B16F10 murine melanoma cells obtained from the Korean Cell Line Bank (Seoul, Korea). The B16F10 cells were grown to a density of 1 × 10^5 cells in Dulbecco’s modified Eagle’s medium supplemented with 10% fetal bovine serum and 1% penicillin−streptomycin at 37 °C under 5% CO2. The cells were incubated for 48 h after the addition of 100 μM 3-isobutyl-1-methylxanthine. The cell extracts having tyrosinase activity were prepared.
The melanin quantification assay and the cell-lysate-based activity assay were used for confirming the inhibition of mammalian tyrosinases. Unfortunately, quantifying melanin content using hydroxamate-containing molecules is not feasible because anticancer agents affect cell viability. Therefore, we evaluated tyrosinase activities using B16F10 cell lysates in a small-molecule-concentration-dependent manner.

For experiment [5], the system named is carbonic anhydrase. On the set-up: method as in PMID 22836518. To be noted: cited from earlier work.
Experiment [6] relates to indoleamine 2,3-dioxygenase. On the set-up: method as in PMID 26717206. As to conditions: cited from earlier work.
The subject of experiment [7] is arachidonate 5-lipoxygenase. On the set-up: method as in PMID 3820229. As to conditions: cited from earlier work.
Experiment [8] concerns mandelate racemase. On the set-up: method as in PMID 17055725. As to conditions: cited from earlier work.
The target in experiment [9] is tyrosinase. As to conditions: cited from earlier work; for IC50: ChEMBL-registered tyrosinase inhibitor.
Setting [10] is: shift toward lower temperature against DMSO.
[11] abbreviates: mushroom tyrosinase, concentration-dependent profile (Figure 2).

Sequence of tyrosinase (Agaricus bisporus, UniProt C7FF04) (C7FF04 1-392): as the sequence (C7FF04 1-392) above

Turning to `CC(=O)NO` [Acetohydroxamic acid], the Ki in experiment [1] (inhibitory constant converted from IC50 (Cheng-Prusoff), 5 nM enzyme, 500 μM L-DOPA, ± is SD from Monte-Carlo simulation, read-out: Ki) is 38 ± 8 µM. The “Kinetics model (mode of inhibition)” value in [2] was “noncompetitive”.
For the compound `O=C(NO)c1ccccc1` [Benzohydroxamic acid], the figures for the inhibitory constant (Ki) in experiment [1] and in experiment [2] were 0.007 ± 0.001 µM and 0.128 µM, respectively. Also, the melting temperature (Tm) in experiment [3] amounted to 47.15 ± 0.07 °C. Also, the ΔTm in [3] (shift toward lower temperature) is on record as 2.01 degrees; in experiment [3] (setting [10]), 2.01 °. For the same compound, the “Kinetics model (mode of inhibition)” value in experiment [2] is recorded as “noncompetitive”. Moreover, the “Decrease of tyrosinase activity” value in [4] is on record as “approximately 97%”. In addition, the “Inhibition of carbonic anhydrase (in words)” value in [5] is given as “μM range”. In addition, the “Inhibition of indoleamine 2,3-dioxygenase (in words)” value in experiment [6] is “μM range”. For the same compound, in [7], the “Inhibition of arachidonate 5-lipoxygenase (in words)” value is “μM range”. Moreover, the “Inhibition of mandelate racemase (in words)” value in experiment [8] is “μM range”.
For `CCCC(=O)NO` [Butyrylhydroxamic acid], the Ki in experiment [1] (read-out: Ki) was determined as 32 ± 5 µM.
For `Oc1ccc(-c2nc3ccccc3s2)c(O)c1` [CHEMBL1408767], in experiment [9] (ref 61 (supplement ref 7)), the IC50 is 0.01 µM.
Turning to `CCN(CC)C(=O)/C=C/c1ccc(O)cc1O` [CHEMBL4463984], the IC50 in [9] (ref 62 (supplement ref 8)) is 0.011 µM.
In the case of `NCC(=O)NO` [Glycine hydroxamate], the “Inhibition of tyrosinase (in words)” value in experiment [9] is “comparable inhibitory activity to arbutin”.
For `CC(=O)NO` [N-Hydroxyacetamide], the Ki in experiment [1] (inhibitory constant converted from IC50 (Cheng-Prusoff), 5 nM enzyme, 500 μM L-DOPA, read-out: Ki) is > 1000 µM. In experiment [1] (setting [11]), the “Inhibition of tyrosinase (in words)” value is given as “scarcely inhibited”.
`Cc1[nH]c2ccccc2c1CCNCc1ccc(/C=C/C(=O)NO)cc1` [Panobinostat]: the “Ki values as worded in the text (words or range with mixed units)” value in experiment [1] (mushroom tyrosinase) is “submicromolar range”. For the same compound, the Ki in experiment [1] (read-out: Ki) is 0.04 ± 0.005 µM; in experiment [2] (simultaneous nonlinear fit, read-out: Ki (simulated inhibitory constant from kinetics fit)), 0.29 µM. Further, the Tm in experiment [3] stood at 46.72 ± 0.06 °C. Further, the ΔTm in experiment [3] (shift toward lower temperature) is given as 2.44 degrees; in [3] (setting [10]) it was 2.44 °. The “Kinetics model (mode of inhibition)” value in experiment [2] is recorded as “competitive”.
In the case of `C/C=C1\NC(=O)[C@H]2CSSCC/C=C/[C@H](CC(=O)N[C@H](C(C)C)C(=O)N2)OC(=O)[C@H](C(C)C)NC1=O` [Romidepsin], in [1], the “Inhibition of tyrosinase (in words)” value is “inhibited very weakly” and the Ki was > 500 µM.
In experiment [1], `O=C(CCCCCN1C(=O)c2cccc3cccc(c23)C1=O)NO` [Scriptaid] came in with a Ki of 0.18 ± 0.021 µM. In addition, the Tm in [3] was 47.31 ± 0.07 °C. The ΔTm in experiment [3] (shift toward lower temperature) was 1.85 degrees; in [3] (setting [10]), 1.85 °. Besides, the “Kinetics model (mode of inhibition)” value in experiment [2] is given as “competitive”.
Consider `O=C(CCCCCCC(=O)NO)NO` [Suberohydroxamic acid], for which, in [1] (read-out: Ki), the Ki amounted to 1 ± 0.2 µM.
Take `CC(/C=C/C(=O)NO)=C\[C@@H](C)C(=O)c1ccc(N(C)C)cc1` [Trichostatin A]: the Ki in experiment [1] was 1 ± 0.1 µM; in experiment [2] (Ki for apo state (mixed model), first value, apo state) it was 4.5 µM; in experiment [2] (Ki for holo state (mixed model), second value, holo state), 37 µM. For the same compound, the Tm in experiment [3] is 46.55 ± 0.07 °C. Besides, the “Kinetics model (mode of inhibition)” value in experiment [2] is reported as “mixed”.
As to `O=c1cccccc1O` [Tropolone], in experiment [1] (read-out: Ki), the inhibition constant Ki was 0.043 ± 0.003 µM.
Consider `CCCC(CCC)C(=O)O` [Valproic acid], for which the “Inhibition of tyrosinase (in words)” value in [1] (setting [11]) is given as “inhibited very weakly”. For the same compound, the Ki in experiment [1] (read-out: Ki) is > 500 µM.
